Among the test systems are LOX IMVI melanoma; SNB-75 CNS; MDA-N; 786-0 renal; SW-620 colon; PC-3 prostate; A549 NSCLC; MOLT-4 leukemia; COLO 205 colon; NCI-H23 lung; NCI-H226 lung; HT29 colon; MDA-MB-435; NCI/ADR-RES ovarian; CCRF-CEM leukemia; SN12C renal; IGROV1 ovarian; NCI-H522 lung; HL-60(TB) leukemia; MALME-3M melanoma.
What all share (assay): DTP human tumour cell line panel, 48 h

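Interpolation was linear, between the two tested concentrations surrounding the appropriate level; five concentrations were tested over 48 hours in 96-well plates. TGI is the concentration that stops growth completely.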

The values below come from PubChem BioAssay (NCI).

Take `O=S(=O)(O)c1c(Cl)cc(O)c2ncccc12`: the total growth inhibition concentration (TGI) in the test on LOX IMVI melanoma, in the test on SNB-75 CNS, in the test with MDA-N, in the test on 786-0 renal, in the test on SW-620 colon and in the test with PC-3 prostate was more than 100 µM in each case. For the same compound, the concentration for total growth inhibition (TGI) with A549 NSCLC, in the test with MOLT-4 leukemia, with COLO 205 colon, in the test on NCI-H23 lung, in the test with NCI-H226 lung and with HT29 colon was more than 100 µM each time. Moreover, the concentration for total growth inhibition (TGI) in the test with MDA-MB-435, in the test on NCI/ADR-RES ovarian, in the test with CCRF-CEM leukemia, in the test with SN12C renal and in the test with IGROV1 ovarian was more than 100 µM in each case.

For the compound `C=CCn1c(=O)c2ccccc2[n+]2c(C)c(C(=O)OCC)sc12`, the concentration for total growth inhibition (TGI) with LOX IMVI melanoma, in the test on MDA-N, in the test with 786-0 renal, in the test on NCI-H522 lung, with SW-620 colon and in the test with PC-3 prostate was more than 100 µM in each case. Besides, the total growth inhibition concentration (TGI) in the test with A549 NSCLC, with HL-60(TB) leukemia, in the test on MOLT-4 leukemia, in the test on COLO 205 colon, with NCI-H23 lung and with NCI-H226 lung was more than 100 µM in each case. In addition, the TGI in the test on HT29 colon, with MDA-MB-435, in the test with NCI/ADR-RES ovarian, in the test with CCRF-CEM leukemia, with SN12C renal and in the test on IGROV1 ovarian was more than 100 µM each time.

Turning to `Cc1cc(N(CCC#N)CCC#N)ccc1/C(N=Nc1ccc(Cl)cc1)=N\NC(=O)c1cc(Cl)ccc1O`, the total growth inhibition concentration (TGI) (commonly the concentration giving total growth inhibition) in the test on SNB-75 CNS is 84.4 µM; in the test with MDA-N it was more than 100 µM; with 786-0 renal, more than 100 µM; in the test on NCI-H522 lung, 37 µM; with MALME-3M melanoma, more than 100 µM; in the test on PC-3 prostate, more than 100 µM. The TGI in the test with A549 NSCLC was more than 100 µM; in the test on MOLT-4 leukemia, more than 100 µM; with COLO 205 colon, more than 100 µM; with NCI-H23 lung it was more than 100 µM; with NCI-H226 lung, 85.1 µM; in the test with HT29 colon it was more than 100 µM. Moreover, the concentration for total growth inhibition (TGI) in the test on MDA-MB-435, in the test with NCI/ADR-RES ovarian, in the test with CCRF-CEM leukemia, with SN12C renal and in the test on IGROV1 ovarian was more than 100 µM in each case.

For `C=C(C)C(=O)O[C@H]1C/C(CO)=C/CCC(=C)C(OC(C)=O)[C@H]2OC(=O)C(=C)[C@H]12` (stereo partly drawn), the TGI in the test with LOX IMVI melanoma was 27 µM; with SNB-75 CNS, 9.12 µM; in the test on MDA-N, 19.1 µM; in the test on 786-0 renal, 12.8 µM; with NCI-H522 lung, 11 µM; in the test on MALME-3M melanoma, 26.7 µM. Also, the TGI was found to be 74.2 µM with SW-620 colon; 58.9 µM with PC-3 prostate; 55.8 µM in the test on A549 NSCLC; 17.2 µM in the test on MOLT-4 leukemia; 15.7 µM in the test on COLO 205 colon; 25 µM with NCI-H23 lung. The total growth inhibition concentration (TGI) in the test with NCI-H226 lung is more than 100 µM; in the test with HT29 colon, 21.7 µM; in the test on MDA-MB-435 it was 17.8 µM; with NCI/ADR-RES ovarian, 61.2 µM; with CCRF-CEM leukemia it was 6.2 µM; in the test on SN12C renal it was 30.8 µM. Besides, the concentration for total growth inhibition (TGI) with IGROV1 ovarian is 48.2 µM.

As to `COc1cc(-c2cn(S(=O)(=O)c3ccc(C)cc3)c3ccccc23)nc(-c2cn(S(=O)(=O)c3ccc(C)cc3)c3ccccc23)n1`, the concentration for total growth inhibition (TGI) is more than 100 µM in the test with LOX IMVI melanoma; more than 100 µM in the test on SNB-75 CNS; 1.88 µM with MDA-N; more than 100 µM with 786-0 renal; 0.506 µM in the test with NCI-H522 lung; more than 56.9 µM in the test on SW-620 colon. In addition, the TGI in the test on PC-3 prostate was 38.5 µM; in the test on A549 NSCLC, more than 48.8 µM; in the test with HL-60(TB) leukemia, 5.24 µM; with MOLT-4 leukemia, more than 22.5 µM; in the test with COLO 205 colon it was 3.31 µM; in the test on NCI-H23 lung, 0.927 µM. For the same compound, the total growth inhibition concentration (TGI) was more than 100 µM in the test with NCI-H226 lung; 2 µM in the test on HT29 colon; 0.47 µM with MDA-MB-435; more than 100 µM in the test on NCI/ADR-RES ovarian; 24.7 µM with CCRF-CEM leukemia; more than 100 µM in the test with SN12C renal.

Regarding `O=C(Nn1c(-c2ccccc2)nc2ccccc2c1=O)c1ccc(CS)cc1`, the TGI was 5.38 µM with LOX IMVI melanoma; more than 100 µM in the test with SNB-75 CNS; more than 100 µM with MDA-N; 50.5 µM in the test on 786-0 renal; more than 100 µM with NCI-H522 lung; more than 100 µM in the test on MALME-3M melanoma. The TGI is more than 100 µM with SW-620 colon; more than 100 µM with PC-3 prostate; more than 100 µM in the test on A549 NSCLC; 50.1 µM in the test with HL-60(TB) leukemia; 62.4 µM in the test with MOLT-4 leukemia; more than 100 µM with COLO 205 colon. Besides, the concentration for total growth inhibition (TGI) is more than 100 µM in the test on NCI-H23 lung; more than 100 µM with NCI-H226 lung; more than 100 µM in the test on HT29 colon; more than 100 µM with MDA-MB-435; 39.3 µM with CCRF-CEM leukemia; more than 100 µM with SN12C renal. Further, in the test with IGROV1 ovarian, the TGI worked out at 88.3 µM.

Consider `COc1cc(C2SC(N)=Nc3c2c(C)nn3C(=O)c2ccccc2O)cc(OC)c1OC` (stereo not drawn), for which the concentration for total growth inhibition (TGI) in the test on LOX IMVI melanoma was more than 10 µM; in the test with SNB-75 CNS it was 6.85 µM; in the test with MDA-N, more than 10 µM; in the test with 786-0 renal, more than 10 µM; in the test with MALME-3M melanoma, more than 10 µM; in the test with SW-620 colon it was more than 10 µM. Also, the concentration for total growth inhibition (TGI) with PC-3 prostate, in the test on A549 NSCLC, in the test with MOLT-4 leukemia, with COLO 205 colon, in the test on NCI-H23 lung and in the test on NCI-H226 lung was more than 10 µM each time. The TGI with HT29 colon was more than 10 µM; with MDA-MB-435 it was more than 10 µM; with NCI/ADR-RES ovarian, more than 10 µM; in the test on CCRF-CEM leukemia, more than 10 µM; in the test on SN12C renal, more than 10 µM; in the test on IGROV1 ovarian, 9.01 µM.

Take `CC(C)(C)c1cc(CC2C(=O)c3ccccc3C2=O)cc(C(C)(C)C)c1O`: the TGI in the test on LOX IMVI melanoma was 16.2 µM; in the test on MDA-N, more than 100 µM; with 786-0 renal, 21.1 µM; in the test with NCI-H522 lung it was 14.4 µM; in the test with SW-620 colon, 17.1 µM; in the test on PC-3 prostate, 10.3 µM. For the same compound, the TGI in the test with A549 NSCLC is 87.2 µM; in the test on HL-60(TB) leukemia, 6.69 µM; with MOLT-4 leukemia it was 9.56 µM; with COLO 205 colon, 30.7 µM; in the test with NCI-H23 lung it was more than 100 µM; in the test with HT29 colon, 13.8 µM. Besides, the total growth inhibition concentration (TGI) in the test on MDA-MB-435 is 20 µM; with NCI/ADR-RES ovarian, more than 100 µM; in the test on CCRF-CEM leukemia it was 40.7 µM; in the test with SN12C renal, 35.9 µM; with IGROV1 ovarian it was 26.4 µM.
